Source: PubChem BioAssay (NCI)
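Test compounds were applied to cells in 96-well plates for 48 hours at 5 doses. GI50 is the concentration that inhibits growth by half. TGI marks complete inhibition of growth.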

How the values were obtained:
Assay in all cases: growth of human tumour cells (NCI), 48 h
OVCAR-5 ovarian = test system: OVCAR-5 ovarian
KM12 colon = test system: KM12 colon
UACC-62 melanoma = test system: UACC-62 melanoma
HCT-15 colon = test system: HCT-15 colon
M14 melanoma = test system: M14 melanoma
UO-31 renal = test system: UO-31 renal
MDA-MB-435 = test system: MDA-MB-435
SF-295 CNS = test system: SF-295 CNS
SK-MEL-5 melanoma = test system: SK-MEL-5 melanoma
HCC-2998 colon = test system: HCC-2998 colon

SMILES	TGI (OVCAR-5 ovarian) [µM]	TGI (KM12 colon) [µM]	TGI (UACC-62 melanoma) [µM]	TGI (HCT-15 colon) [µM]	TGI (M14 melanoma) [µM]	TGI (UO-31 renal) [µM]	TGI (MDA-MB-435) [µM]	TGI (SF-295 CNS) [µM]	TGI (SK-MEL-5 melanoma) [µM]	TGI (HCC-2998 colon) [µM]	GI50 (OVCAR-5 ovarian) [µM]	GI50 (KM12 colon) [µM]	GI50 (UACC-62 melanoma) [µM]	GI50 (HCT-15 colon) [µM]	GI50 (HCC-2998 colon) [µM]	GI50 (UO-31 renal) [µM]	GI50 (MDA-MB-435) [µM]	GI50 (SF-295 CNS) [µM]	GI50 (SK-MEL-5 melanoma) [µM]
COc1ccc(/C=C2\CN(C)Cc3c2[nH]c(=O)c(C#N)c3-c2ccc(OC)cc2)cc1	> 100	> 100	> 100	> 100	> 100	> 100	> 100	> 100	> 100										
CC(=O)NC1=C(C)C(=O)c2c(nc3n2CC[C@H]3OC(C)=O)C1=O	7.34	3.52	3.77	12.6	4.01	6.78	1.85	5.49	8.07	7.73									
CCS(=O)(=O)c1c2cc(OC)ccc2nc2ccc(OC)cc12	> 100	> 100	> 100	> 100	> 100	> 100	> 100	> 100		> 100									
CC(=N\N=C\c1ccccn1)/C(C)=N/N=C(C)/C(C)=N/N=C(C)/C(C)=N/N=C/c1ccccn1	> 100	> 100		> 100	> 100	> 100	> 100	> 100	> 100	> 100									
CCOC(=O)N(C)C1(c2ccccc2)CCN(CCCC(=O)c2ccc(F)cc2)CC1	> 100	81.1	> 100	> 100	32.1		53.6	> 100	31.3	42.3									
COc1cc(C(SCc2ccccc2)SCc2ccccc2)ccc1O		> 10	> 10	> 10	> 10	> 10		> 10	> 10	> 10									
O=C(C#Cc1cn(C2CC(O)C(CO)O2)c(=O)[nH]c1=O)c1ccccc1 (centres undefined)		> 100	> 100	> 100	> 100	> 100	> 100	> 100	> 100	> 100									
Nc1c(S(=O)(=O)O)cc(Nc2cccc(S(=O)(=O)/C=C/S(=O)(=O)O)c2)c2c1C(=O)c1ccccc1C2=O	> 100	> 100	> 100	> 100	> 100		> 100	> 100	> 100	> 100									
CN1CCCCC(C(O)(c2ccccc2)c2ccccc2)C1=O (centres undefined)	> 100	> 100	> 100	32.1	> 100	> 100		> 100	> 100	> 100									
Cn1ccc(C(=O)NCCCCCNC(=O)c2ccn(C)c(=O)c2O)c(O)c1=O		> 100	> 100	> 100		> 100	> 100		> 100	> 100									
CCOC12SC(=Nc3ccc(C)cc3)NN1C(=S)N(C)N=C2C (centres undefined)	> 100	> 100	> 100	> 100	> 100			> 100	> 100										
Cc1cc([N+](=O)[O-])ccc1N=NC(=O)NNc1ccc([N+](=O)[O-])cc1C	31.8		26.3	50.2	28.3	25.2	28.4		26.7	31									
COC(=O)n1c(CBr)c(Br)c2ccccc21	79.2	> 100	86.4	> 100	> 100	71.1		69.9	> 100	> 100									
NC(=O)NCCCC(NC(=O)OCCCCCn1ccc(=O)[nH]c1=O)C(=O)O (centres undefined)	> 100	> 100	> 100	> 100	> 100	> 100	> 100	> 100		> 100									
CC(=O)NC1=C(NCc2ccc(Cl)cc2)C(=O)c2ccccc2C1=O		> 50	8.61	11.6	13.5	11.4		47	11.4	> 50									
c1ccc(C2=C(c3ccccc3)P(c3ccccc3)C2)cc1 (centres undefined)	> 100	> 100		> 100	> 100		> 100	> 100		> 100									
CC(=O)Nc1ccc(-c2nnc(SCC(=O)Nc3ccccc3C)o2)cc1	> 100	> 100	> 100	> 100	> 100	> 100		> 100	> 100										
O=C(O)C1SCCS1	> 100		> 100	> 100	> 100	> 100	> 100	> 100	> 100	> 100									
COc1cc2c(c(OC)c1OC)-c1ccc(SC)c(=O)cc1C(CC(=O)Oc1cccc(C#N)c1)C2 (centres undefined)	> 100	4.83	5.32	6.47	> 88.8	> 100		> 100	40.8	1.59									
CC(=O)OCC1OC(c2nnc(C)o2)=CC(OC(C)=O)C1OC(C)=O (centres undefined)	> 100	> 100				> 100	> 100	> 100	> 100										
Cc1c(F)c(N)c2c(=O)cc(-c3ccc(NC(=O)C(N)CCCN=C(N)N)c(F)c3)oc2c1F (centres undefined)	> 50	99.7		> 100	97.1	> 55.8	> 83.6	> 56	76.8	> 100									
O=C(O)c1ccc(C2C3C=CC(C3)C2[N+](=O)[O-])cc1 (centres undefined)		> 100	> 100	> 100	> 100	> 100		> 100	> 100	> 100									
Nc1nc(SCCC/C=C/I)nc2c1ncn2C1OC(CO)C(O)C1O (centres undefined)	> 202	> 202	> 202	> 202	> 202	> 202		> 202	> 202										
Cc1nnc2sc(N/N=C/c3ccccc3)nn12	> 100	> 100	> 100	> 100	> 100	> 100	> 100	> 100	> 100										

SMILES	TGI (OVCAR-5 ovarian) [µM]	TGI (KM12 colon) [µM]	TGI (UACC-62 melanoma) [µM]	TGI (HCT-15 colon) [µM]	TGI (M14 melanoma) [µM]	TGI (UO-31 renal) [µM]	TGI (MDA-MB-435) [µM]	TGI (SF-295 CNS) [µM]	TGI (SK-MEL-5 melanoma) [µM]	TGI (HCC-2998 colon) [µM]	GI50 (OVCAR-5 ovarian) [µM]	GI50 (KM12 colon) [µM]	GI50 (UACC-62 melanoma) [µM]	GI50 (HCT-15 colon) [µM]	GI50 (HCC-2998 colon) [µM]	GI50 (UO-31 renal) [µM]	GI50 (MDA-MB-435) [µM]	GI50 (SF-295 CNS) [µM]	GI50 (SK-MEL-5 melanoma) [µM]
O=C(O)/C=C/C(=O)O	> 100	> 100		> 100	> 100	> 100	> 100	> 100	> 100	> 100									
O=C(O)c1ccc(Nc2nc3ccccc3nc2C(=O)O)cc1	> 100	> 100	> 100		> 100	> 100	> 100	> 100	> 100	> 100									
N#Cc1nc(/C=C/c2ccccc2)oc1N	> 100	> 100		> 100	> 100	> 100	> 100	> 100	> 100	> 100									
O=C(/C=C/c1ccccc1O)/C=C/c1ccccc1O	3.14	3.3	3.31	5.1	3.55	3.59	4.64	3.89	2.8										
OCC(O)C(O)C(O)C(/C=N\Nc1ncnc2ccc(Br)cc12)=N/Nc1ncnc2ccc(Br)cc12 (centres undefined)	> 100	> 100			71.2	> 100	> 100	> 100	18										
COc1ccc2c(c1)-c1nn(CCN(C)C)c3ccc(C(=O)NCCCN(C)CCCNC(=O)c4ccc5c6c(nn5CCN(C)C)-c5cc(OC)ccc5Nc46)c(c13)N2	1.66		0.23	10.9	1.33	4.41	0.262	3.38	0.313	0.306									
CCOC(=O)[C@H]1Nc2ccc(Cl)cc2[C@H]2c3ccccc3O[C@H]21	> 100	> 100	> 100	> 100	> 100	> 100		> 100	> 100	> 100									
OCCO[P+]1(OCCO)n2c3ccc2C(c2ccccc2)=C2C=CC(=N2)C(c2ccccc2)=c2ccc(n21)=C(c1ccccc1)C1=NC(=C3c2ccccc2)C=C1	1.28	0.21		3.59	0.278	4.06	0.132	0.513	0.164	0.327									
COC(=O)c1ccccc1CC(Cc1ccccc1)C(=O)OC (centres undefined)	> 100	> 100		> 100	> 100	> 100	> 100	> 100	54.8	> 100									
CCOC(=O)C(=Cn1c(=S)[nH]c2ccc([N+](=O)[O-])cc21)C(=O)OCC	> 100	> 100	> 100		> 100	> 100	> 100	> 100	> 100	> 100									
C#CCOC(=O)C(N)CCCN=C(N)N (centres undefined)	> 100	> 100		> 100	> 100	> 100	> 100		> 100	> 100									
CC(C)CCC[C@@H](C)[C@H]1CCC2C3=CCC4C(=O)C=CC(=O)C4C3CC[C@@]21C (some centres undefined)	> 100	> 100	> 100	> 100		0.359	1.15	0.576	2.66	0.855	0.212	0.338	0.542	0.235	0.274	0.0721	0.254	0.172	0.419
COc1ccc(/C=N/n2c(Cc3ccc(Cl)cc3)n[nH]c2=O)c(OC)c1	> 100	> 100	66.6	> 100	> 100	> 100	> 100	42.9		> 100									
Clc1ncnc2c1ncn2CCCCCCCCCCCCn1cnc2c(Cl)ncnc21	72.7	28.9	26.9	25.8	29.6	25.8		28.8	17.5	19.5									
COc1ccc(C(O)/C(=C/n2ccnc2)c2ccccc2)cc1OC (centres undefined)	> 100	> 100	> 100	> 100	> 100	> 100		> 100	> 100	> 100									
CCOC(=O)C(C)c1nc2cc(N3CCN(C)CC3)c(F)cc2[nH]c1=O (centres undefined)	> 100	> 100	> 100	> 100	> 100	> 100	> 100	> 100	> 100										
CC[C@@H]1CC[C@@H]2[C@H](CC[C@]3(C)[C@@H](OS(=O)(=O)c4ccc(C)cc4)CC[C@@H]23)[C@H]1CO	> 100	> 100		> 100	> 100	52.5	> 100	> 100	> 100	> 100									
CCCCCCOc1ccc(NC2=C(Cl)C(=O)c3ncccc3C2=O)cc1	> 10	3.14	2.75	4.64	4.04	2.72	3.27	3.59	2.92										
COC(=O)c1cccc(C(=O)OC)c1	> 100	> 100		> 100	> 100			> 100		> 100									
O=C1/C(=C/c2ccco2)NC(=S)N1CN1CCOCC1	> 100	> 100	> 100	> 100	> 100	> 100	> 100	> 100	> 100										
C=CCN(CC=C)CC(C(C)=O)C(c1ccccc1)c1c(O)c2ccccc2oc1=O (centres undefined)	> 100	37.9	> 100	> 100	> 100	> 100		95.8	> 100	> 100									
COc1nc2[nH]ccc2c(=O)n1C	> 100	> 100		> 100	> 100			> 100	> 100										
COc1ccccc1NC(=O)CC(=O)NNCC(=O)Nc1nnc(-c2ccccc2)o1	> 100	> 100	> 100	> 100	> 100	> 100		> 100	> 100	> 100									
